Laboratory results as given in US20110262546A1 (priority 2008, published 2011).

Columns and labels:
[1] = tested on: ScGT1 cells; settings: for % cell viability ± SEM ScGT1: mouse
[2] = tested on: ScN2a cells; settings: mouse
[3] = target: PrP^Sc in ScGT1 cells (Mus musculus, UniProt P04925); assay: cell-based
[4] = target: PrP^Sc in ScN2a cells (Mus musculus, UniProt P04925); assay: cell-based
Chain of PrP^Sc in ScN2a cells (P04925 23-230 limits assumed): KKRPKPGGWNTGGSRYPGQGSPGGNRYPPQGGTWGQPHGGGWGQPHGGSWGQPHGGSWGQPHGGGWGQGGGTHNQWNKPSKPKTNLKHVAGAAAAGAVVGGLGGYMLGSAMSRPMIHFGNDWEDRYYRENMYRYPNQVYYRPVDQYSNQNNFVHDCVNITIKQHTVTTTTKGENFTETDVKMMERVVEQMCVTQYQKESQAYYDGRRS

Chain of PrP^Sc in ScGT1 cells (P04925 23-230 limits assumed): as above

Row | Molecule | % cell viability ± SEM ScGT1 [1] [%] | % cell viability ± SEM ScN2a [2] [%] | EC50 [3] [µM] | EC50 [4] [µM] | cytotoxicity to the neurons [1] | dead cells [1]
1 | CN(C)CCCN1c2ccccc2CCc2ccccc21 [Imipramime, imipramine] | 100 ± 7 | 100 ± 5 | 6.2 ± 0.4 | 5.5 ± 0.5 |  | 
2 | CCN(CC)CCCC(C)Nc1c2ccc(Cl)cc2nc2ccc(OC)cc12 (centres unmarked) [Quinacrine, quinacrine] | 100 ± 4 | 100 ± 2 |  |  |  | 
3 | sodium polystyrenesulfonate [PSS] |  |  |  |  | weak cytotoxicity | around 20%
